Tests used:
Assay in all cases: Test B preemergence/postemergence greenhouse plant response rating 0 to 10
bedstraw = format: in vivo, Galium aparine; conditions: for Plant response rating (0 to 10 scale), Bedstraw: Rate 100 g/ha; for Plant response rating, Bedstraw: Rate 400 g/ha, 0 to 10 scale
Text: (§1) Seeds of barley (Hordeum vulgare), barnyardgrass (Echinochloa crus-galli), bedstraw (Galium aparine), blackgrass (Alopecurus myosuroides), […] (Bromus secalinus), chickweed (Stellaria media), cocklebur (Xanthium pensylvanicum), corn (Zea mays), cotton (Gossypium hirsutum), crabgrass (Digitaria spp.), giant foxtail (Setaria faberii), lambsquarters (Chenopodium album), morningglory (Ipomoea hederacea), rape (Brassica napus), rice (Oryza sativa), sorghum (Sorghum bicolor), soybean (Glycine max), sugar beet (Beta vulgaris), velvetleaf (Abutilon theophrasti), wheat (Triticum aestivum), wild buckwheat (Polygonum convolvulus), and wild oat (Avena fatua) and purple nutsedge. (Cyperus rotundus) tubers were planted and treated preemergence with test chemicals dissolved in a non-phytotoxic solvent. At the same time, these crop and weed species were also treated with postemergence applications of test chemicals. Plants ranged in height from two to eighteen cm (one to four leaf stage) for postemergence treatments. Treated plants and controls were maintained in a greenhouse for twelve to sixteen days, after which all species were compared to controls and visually evaluated. […] A dash (-) response means no test result.

wild buckwheat = format: in vivo, Polygonum convolvulus; conditions: for Plant response rating (0 to 10 scale), Wild buckwheat: Rate 100 g/ha; for Plant response rating, Wild buckwheat: Rate 400 g/ha, 0 to 10 scale
Text: as §1

sugar beet = format: in vivo, Beta vulgaris; conditions: for Plant response rating (0 to 10 scale), Sugar beet: Rate 100 g/ha; for Plant response rating, Sugar beet: Rate 400 g/ha, 0 to 10 scale
Text: as §1

corn = format: in vivo, Zea mays; conditions: for Plant response rating (0 to 10 scale), Corn: Rate 100 g/ha; for Plant response rating, Corn: Rate 400 g/ha, 0 to 10 scale
Text: as §1

blackgrass = format: in vivo, Alopecurus myosuroides; conditions: for Plant response rating (0 to 10 scale), Blackgrass: Rate 100 g/ha; for Plant response rating, Blackgrass: Rate 400 g/ha, 0 to 10 scale
Text: as §1

purple nutsedge = format: in vivo, Cyperus rotundus; conditions: for Plant response rating (0 to 10 scale), Nutsedge: Rate 100 g/ha; for Plant response rating, Nutsedge: Rate 400 g/ha, 0 to 10 scale
Text: as §1

barley = format: in vivo, Hordeum vulgare; conditions: for Plant response rating (0 to 10 scale), Barley: Rate 100 g/ha; for Plant response rating, Barley: Rate 400 g/ha, 0 to 10 scale
Text: as §1

cheatgrass = format: in vivo, Bromus secalinus; conditions: for Plant response rating (0 to 10 scale), Cheatgrass: Rate 100 g/ha; for Plant response rating, Cheatgrass: Rate 400 g/ha, 0 to 10 scale
Text: as §1

morningglory = format: in vivo, Ipomoea hederacea; conditions: for Plant response rating (0 to 10 scale), Morningglory: Rate 100 g/ha; for Plant response rating, Morningglory: Rate 400 g/ha, 0 to 10 scale
Text: as §1

rice = format: in vivo, Oryza sativa; conditions: for Plant response rating (0 to 10 scale), Rice: Rate 100 g/ha; for Plant response rating, Rice: Rate 400 g/ha, 0 to 10 scale
Text: as §1

cotton = format: in vivo, Gossypium hirsutum; conditions: for Plant response rating (0 to 10 scale), Cotton: Rate 100 g/ha; for Plant response rating, Cotton: Rate 400 g/ha, 0 to 10 scale
Text: as §1

velvetleaf = format: in vivo, Abutilon theophrasti; conditions: for Plant response rating (0 to 10 scale), Velvetleaf: Rate 100 g/ha; for Plant response rating, Velvetleaf: Rate 400 g/ha, 0 to 10 scale
Text: as §1

barnyardgrass = format: in vivo, Echinochloa crus-galli; conditions: for Plant response rating (0 to 10 scale), Barnyardgrass: Rate 100 g/ha; for Plant response rating, Barnyardgrass: Rate 400 g/ha, 0 to 10 scale
Text: as §1

lambsquarters = format: in vivo, Chenopodium album; conditions: for Plant response rating (0 to 10 scale), Lambsquarter: Rate 100 g/ha; for Plant response rating, Lambsquarter: Rate 400 g/ha, 0 to 10 scale
Text: as §1

chickweed = format: in vivo, Stellaria media; conditions: for Plant response rating (0 to 10 scale), Chickweed: Rate 100 g/ha; for Plant response rating, Chickweed: Rate 400 g/ha, 0 to 10 scale
Text: as §1

cocklebur = format: in vivo, Xanthium pensylvanicum; conditions: for Plant response rating (0 to 10 scale), Cocklebur: Rate 100 g/ha; for Plant response rating, Cocklebur: Rate 400 g/ha, 0 to 10 scale
Text: as §1

crabgrass = format: in vivo, Digitaria spp.; conditions: for Plant response rating (0 to 10 scale), Crabgrass: Rate 100 g/ha; for Plant response rating, Crabgrass: Rate 400 g/ha, 0 to 10 scale
Text: as §1

wild oat = format: in vivo, Avena fatua; conditions: for Plant response rating (0 to 10 scale), Wild oat: Rate 100 g/ha; for Plant response rating, Wild oat: Rate 400 g/ha, 0 to 10 scale
Text: as §1

rape = format: in vivo, Brassica napus; conditions: for Plant response rating (0 to 10 scale), Rape: Rate 100 g/ha; for Plant response rating, Rape: Rate 400 g/ha, 0 to 10 scale
Text: as §1

soybean = format: in vivo, Glycine max; conditions: for Plant response rating (0 to 10 scale), Soybean: Rate 100 g/ha; for Plant response rating, Soybean: Rate 400 g/ha, 0 to 10 scale
Text: as §1

sorghum = format: in vivo, Sorghum bicolor; conditions: for Plant response rating (0 to 10 scale), Sorghum: Rate 100 g/ha; for Plant response rating, Sorghum: Rate 400 g/ha, 0 to 10 scale
Text: as §1

giant foxtail = format: in vivo, Setaria faberii; conditions: for Plant response rating (0 to 10 scale), Giant foxtail: Rate 100 g/ha; for Plant response rating, Giant foxtail: Rate 400 g/ha, 0 to 10 scale
Text: as §1

wheat = format: in vivo, Triticum aestivum; conditions: for Plant response rating (0 to 10 scale), Wheat: Rate 100 g/ha; for Plant response rating, Wheat: Rate 400 g/ha, 0 to 10 scale
Text: as §1

Fc1ccc(-c2nc3n(c2Br)CCCC3)c(F)c1 [Compound 7]
7: Plant response rating (0 to 10 scale), Velvetleaf (velvetleaf; POSTEMERGENCE) | Plant response rating (0 to 10 scale), Cocklebur (cocklebur; POSTEMERGENCE) | Plant response rating, Rape (rape; POSTEMERGENCE)
3: Plant response rating, Wild buckwheat (wild buckwheat; PREEMERGENCE) | Plant response rating (0 to 10 scale), Corn (corn; POSTEMERGENCE) | Plant response rating (0 to 10 scale), Blackgrass (blackgrass; POSTEMERGENCE) | Plant response rating, Barley (barley; POSTEMERGENCE) | Plant response rating (0 to 10 scale), Cheatgrass (cheatgrass; POSTEMERGENCE) | Plant response rating (0 to 10 scale), Chickweed (chickweed; POSTEMERGENCE) | Plant response rating, Chickweed (chickweed; POSTEMERGENCE) | Plant response rating, Chickweed (chickweed; PREEMERGENCE) | Plant response rating, Wild oat (wild oat; POSTEMERGENCE) | Plant response rating (0 to 10 scale), Giant foxtail (giant foxtail; PREEMERGENCE) | Plant response rating (0 to 10 scale), Wheat (wheat; POSTEMERGENCE)
8: Plant response rating (0 to 10 scale), Morningglory (morningglory; POSTEMERGENCE) | Plant response rating (0 to 10 scale), Lambsquarter (lambsquarters; POSTEMERGENCE) | Plant response rating, Cocklebur (cocklebur; POSTEMERGENCE) | Plant response rating (0 to 10 scale), Soybean (soybean; POSTEMERGENCE) | Plant response rating, Soybean (soybean; POSTEMERGENCE)
2: Plant response rating, Bedstraw (bedstraw; PREEMERGENCE) | Plant response rating, Blackgrass (blackgrass; PREEMERGENCE) | Plant response rating, Nutsedge (purple nutsedge; POSTEMERGENCE) | Plant response rating, Nutsedge (purple nutsedge; PREEMERGENCE) | Plant response rating (0 to 10 scale), Barley (barley; POSTEMERGENCE) | Plant response rating, Barnyardgrass (barnyardgrass; PREEMERGENCE) | Plant response rating (0 to 10 scale), Crabgrass (crabgrass; PREEMERGENCE) | Plant response rating (0 to 10 scale), Wild oat (wild oat; POSTEMERGENCE)
0: Plant response rating (0 to 10 scale), Bedstraw (bedstraw; PREEMERGENCE) | Plant response rating (0 to 10 scale), Wild buckwheat (wild buckwheat; PREEMERGENCE) | Plant response rating (0 to 10 scale), Sugar beet (sugar beet; PREEMERGENCE) | Plant response rating, Sugar beet (sugar beet; PREEMERGENCE) | Plant response rating (0 to 10 scale), Corn (corn; PREEMERGENCE) | Plant response rating, Corn (corn; PREEMERGENCE) | Plant response rating (0 to 10 scale), Blackgrass (blackgrass; PREEMERGENCE) | Plant response rating (0 to 10 scale), Nutsedge (purple nutsedge; PREEMERGENCE) | Plant response rating (0 to 10 scale), Barley (barley; PREEMERGENCE) | Plant response rating, Barley (barley; PREEMERGENCE) | Plant response rating (0 to 10 scale), Cheatgrass (cheatgrass; PREEMERGENCE) | Plant response rating, Cheatgrass (cheatgrass; PREEMERGENCE) | Plant response rating (0 to 10 scale), Morningglory (morningglory; PREEMERGENCE) | Plant response rating, Morningglory (morningglory; PREEMERGENCE) | Plant response rating (0 to 10 scale), Rice (rice; PREEMERGENCE) | Plant response rating, Rice (rice; PREEMERGENCE) | Plant response rating (0 to 10 scale), Cotton (cotton; PREEMERGENCE) | Plant response rating, Cotton (cotton; PREEMERGENCE) | Plant response rating (0 to 10 scale), Lambsquarter (lambsquarters; PREEMERGENCE) | Plant response rating (0 to 10 scale), Chickweed (chickweed; PREEMERGENCE) | Plant response rating (0 to 10 scale), Cocklebur (cocklebur; PREEMERGENCE) | Plant response rating, Cocklebur (cocklebur; PREEMERGENCE) | Plant response rating (0 to 10 scale), Wild oat (wild oat; PREEMERGENCE) | Plant response rating, Wild oat (wild oat; PREEMERGENCE) | Plant response rating (0 to 10 scale), Rape (rape; PREEMERGENCE) | Plant response rating, Rape (rape; PREEMERGENCE) | Plant response rating (0 to 10 scale), Soybean (soybean; PREEMERGENCE) | Plant response rating, Soybean (soybean; PREEMERGENCE) | Plant response rating (0 to 10 scale), Sorghum (sorghum; PREEMERGENCE) | Plant response rating, Sorghum (sorghum; PREEMERGENCE) | Plant response rating (0 to 10 scale), Wheat (wheat; PREEMERGENCE) | Plant response rating, Wheat (wheat; PREEMERGENCE)
5: Plant response rating (0 to 10 scale), Rice (rice; POSTEMERGENCE) | Plant response rating, Rice (rice; POSTEMERGENCE) | Plant response rating, Velvetleaf (velvetleaf; PREEMERGENCE) | Plant response rating (0 to 10 scale), Rape (rape; POSTEMERGENCE) | Plant response rating (0 to 10 scale), Sorghum (sorghum; POSTEMERGENCE) | Plant response rating (0 to 10 scale), Giant foxtail (giant foxtail; POSTEMERGENCE) | Plant response rating, Giant foxtail (giant foxtail; POSTEMERGENCE) | Plant response rating, Wheat (wheat; POSTEMERGENCE)
6: Plant response rating, Bedstraw (bedstraw; POSTEMERGENCE) | Plant response rating, Barnyardgrass (barnyardgrass; POSTEMERGENCE) | Plant response rating, Lambsquarter (lambsquarters; PREEMERGENCE) | Plant response rating, Crabgrass (crabgrass; PREEMERGENCE) | Plant response rating, Sorghum (sorghum; POSTEMERGENCE)
9: Plant response rating (0 to 10 scale), Wild buckwheat (wild buckwheat; POSTEMERGENCE) | Plant response rating (0 to 10 scale), Sugar beet (sugar beet; POSTEMERGENCE) | Plant response rating, Morningglory (morningglory; POSTEMERGENCE) | Plant response rating (0 to 10 scale), Cotton (cotton; POSTEMERGENCE) | Plant response rating, Velvetleaf (velvetleaf; POSTEMERGENCE) | Plant response rating, Lambsquarter (lambsquarters; POSTEMERGENCE)
4: Plant response rating (0 to 10 scale), Bedstraw (bedstraw; POSTEMERGENCE) | Plant response rating, Corn (corn; POSTEMERGENCE) | Plant response rating, Blackgrass (blackgrass; POSTEMERGENCE) | Plant response rating, Cheatgrass (cheatgrass; POSTEMERGENCE) | Plant response rating (0 to 10 scale), Barnyardgrass (barnyardgrass; POSTEMERGENCE) | Plant response rating (0 to 10 scale), Crabgrass (crabgrass; POSTEMERGENCE) | Plant response rating, Crabgrass (crabgrass; POSTEMERGENCE) | Plant response rating, Giant foxtail (giant foxtail; PREEMERGENCE)
1: Plant response rating (0 to 10 scale), Nutsedge (purple nutsedge; POSTEMERGENCE) | Plant response rating (0 to 10 scale), Velvetleaf (velvetleaf; PREEMERGENCE) | Plant response rating (0 to 10 scale), Barnyardgrass (barnyardgrass; PREEMERGENCE)
10: Plant response rating, Wild buckwheat (wild buckwheat; POSTEMERGENCE) | Plant response rating, Sugar beet (sugar beet; POSTEMERGENCE) | Plant response rating, Cotton (cotton; POSTEMERGENCE)
